Source: patent US8795997B2 (priority 2009, dated 2014)
Where two headings read alike, the source gives them in different places.

Experiments:
Assay type in all cases: cell-based
[1] = test system: yeast Saccharomyces cerevisiae; experiment: Simultaneous saccharification and fermentation (SSF) of sugarcane bagass slurry; conditions: for Fermentability: 7.5 and 10 mM, 13 and 45 hours (FIG. 9)
Method: The pretreatment of sugarcane bagass for SSF experiments was performed in the Swedish cellulosic ethanol pilot plant (operated by SEKAB E-Technology, Örnskoldsvik, Sweden). Sugarcane bagass was treated in a continuous mode in a 30-liter reactor at a temperature of 198-199° C. and with a residence time of 13-14 min. The feed rate was 24 kg (dry weight) per h and the bagass was impregnated with sulfur dioxide (0.5 kg/h). The pH after pretreatment was 2.7. The dry matter content was 19%. The pretreated material was cooled and stored at 4° C. until further use.
SSF experiments were also performed with sugarcane bagass slurries. The sugarcane bagass slurries were prepared as described in Example 1. Reducing agents, dithionite and sulphite, respectively, were added 10 min prior to inoculum in concentrations of studied 7.5 and 10 mM. The ethanol concentration was measured after 13 and 45 hours according to the protocol described in Example 1.

[2] = test system: yeast Saccharomyces cerevisiae; experiment: Simultaneous saccharification and fermentation (SSF) of spruce slurry; conditions: for Final ethanol concentration: after 70 hours
Method: Addition of sodium dithionite and sodium sulphite was tested in an SSF process. Spruce was pretreated as described in Example 1 above. The spruce slurry was adjusted to pH 5.4 with a 5 M solution of sodium hydroxide. Ten 250-mL shake flasks equipped with magnetic stirrer bars were filled with 100 g of spruce slurry. Sodium dithionite or sodium sulphite was added to the slurries to final concentrations of 7.5 and 10 mM. The additions were performed at room temperature (23° C.) for 10 min with stirring. Duplicate experiments were made. Cellulase and cellobiase preparations were prepared and added to the slurry using the enzyme activity loadings as described in Example 1 above. Further, the yeast inoculum was prepared according to Example 1 above. Inoculums were added to give a start concentration of 2.0 g/L (cell dry weight) in every flask. No source of extra nutrients was added. For comparison, two flasks with spruce slurry to which no reducing agents had been added were included in the experiment. The flasks were incubated at 35° C. for 69 h in a water bath with magnetic stirring. The flasks were sealed with Parafilm (Pechiney Plastic Packaging Company, Chicago, Ill., USA) to prevent evaporation of ethanol. Samples were withdrawn for analysis of ethanol according to Examplel above.
A spruce slurry was prepared according to Examples 1 and 2 above. Different flasks were filled with 100 g each of the spruce slurry and were subjected to a SSF process according to Example 2 above, but with different amounts of dithionite and sulphite added. The produced ethanol was monitored during the fermentation. […]

[3] = test system: baker's yeast (Saccharomyces cerevisiae)
Method: The pH of the sugarcane bagass and spruce hydrolysates were adjusted to 5.5 with a 5 M solution of sodium hydroxide. The conditioning of each hydrolysate was performed in eight 100-mL glass vessels equipped with magnetic stirrer bars. 26 mL hydrolysate was added to all vessels, and the vessels were placed on a magnetic stirrer plate (IKA-Werke, Staufen, Germany). Sodium dithionite (chemical grade; >87%, Merck, Darmstadt, Germany) was added to hydrolysates in the concentrations 5 and 10 mM. Additions of sodium sulphite to 5 and 10 mM were also performed. The additions were made at room temperature (23° C.) and the samples were kept for 10 min with stirring. The experiments were performed in duplicates.
The efficiency of the additions of the reducing agents was compared with alkali detoxification.
Ethanol measurements were performed by using an enzymatic kit (Ethanol UV-method, Boehringer Mannheim GmbH, Mannheim, Germany). Fermentation experiments were performed to evaluate the effectiveness of the additions and treatments. For comparison, untreated hydrolysates were included in the fermentation experiments as well as reference fermentations of sugar-based medium with an amount of fermentable sugars (i.e. glucose and mannose) corresponding to that in the hydrolysate samples. The fermentations were carried out using baker's yeast (Saccharomyces cerevisiae) (Jastbolaget AB, Rotebro, Sweden). The yeast inoculum was prepared in 750-mL cotton-plugged shake flasks with 300 mL YEPD medium (2% yeast extract, 1% peptone, 2% D-glucose). The flasks were inoculated and incubated with agitation at 30° C. for approximately 12 h. The cells were harvested in the late exponential growth phase by centrifugation (Hermla Z206A, Hermle Labortechnik GmbH, Wehingen, Germany) at 1,500 g for 5 min. The cells were resuspended in an appropriate amount of sterile water to achieve an inoculum consisting of 2.0 g/L (cell dry weight) in all fermentation vessels. The fermentation was carried out in 14 25-mL glass flasks equipped with magnets for stirring and sealed with rubber plugs pierced with cannulas for letting out carbon dioxide. The hydrolysate samples (23.75 mL), or alternatively the sugar solution for reference fermentations, were added to the fermentation flasks along with 0.5 mL of a nutrient solution (150 g/L yeast extract, 75 g/L (NH4)2HPO4, 3.75 g/L MgSO4.7H2O, 238.2 g/L NaH2PO4.H2O), and 0.75 mL of yeast inoculum. The flasks were incubated at 30° C. in a water bath with magnetic stirring (IKA-Werke). Samples for measurement of sugars and ethanol were withdrawn during the fermentation. The glucose levels during the fermentation were estimated by using a glucometer (Glucometer Elite XL, Bayer AG, Leverkusen, Germany).

[4] = spruce hydrolysate, 10 mM (FIGS. 1 and 2)
[5] = spruce hydrolysate, 14 h fermentation, 10 mM
[6] = 6 h fermentation, NH4OH detoxification, pH 9, 55° C., 3 h
[7] = spruce hydrolysate, 14 h fermentation, NH4OH detoxification, pH 9, 55° C., 3 h

Structure (SMILES)	Fermentability [1]	Final ethanol concentration ([2]; 2.5 mM)	Final ethanol concentration ([2]; 5 mM)	Final ethanol concentration ([2]; 7.5 mM)	Final ethanol concentration ([2]; 10 mM)	Final ethanol concentration ([2]; 15 mM)	Final ethanol concentration ([2]; 20 mM)	Final ethanol concentration ([2]; 30 mM)	Ethanol production compared to untreated ([2]; 7.5 and 10 mM (FIG. 5))	Balanced ethanol yield ([3]; 6 h fermentation, 10 mM)	Productivity ([3]; 6 h fermentation, 10 mM) [g EtOH×L^−1×h^−1]	Yield (ethanol) ([3]; 6 h fermentation, 10 mM)	Glucose consumption rates and amounts of ethanol produced [3, 4]	Balanced ethanol yield [3, 5]	Productivity [3, 5] [g EtOH×L^−1×h^−1]	Yield (ethanol) [3, 5]	also measured
O=S([O-])[O-].[Na+].[Na+] [Sulphite, sodium sulphite]	improved fermentability	did not result in as high final ethanol concentrations	did not result in as high final ethanol concentrations	35 to 40 g/L	35 to 40 g/L	about 40 g/L	about 40 g/L	about 40 g/L	higher ethanol production compared to the untreated hydrolysate	0.21 g EtOH/Σglucose & mannose prior to detoxification	2.9	0.32 g EtOH/g consumed glucose & mannose	substantial improvement compared to untreated hydrolysate	0.16 g EtOH/Σglucose & mannose prior to detoxification	1.2	0.29 g EtOH/g consumed glucose & mannose	Ethanol production compared with dithionite samples ([2]; 7.5 and 10 mM (FIG. 5)): lower ethanol production compared to the samples to which dithionite was added; Time after which ethanol formation leveled off ([2]; 7.5 and 10 mM (FIG. 5)): 20 h
N [NH4OH, ammonium hydroxide, reference compound]																	Balanced ethanol yield [3, 6]: 0.25 g EtOH/Σglucose & mannose prior to detoxification; Productivity [3, 6]: 3.5 g EtOH×L^−1×h^−1; Yield (ethanol) [3, 6]: 0.34 g EtOH/g consumed glucose & mannose; Balanced ethanol yield [3, 7]: 0.37 g EtOH/Σglucose & mannose prior to detoxification; Productivity [3, 7]: 2.8 g EtOH×L^−1×h^−1; Yield (ethanol) [3, 7]: 0.43 g EtOH/g consumed glucose & mannose
O=S([O-])S(=O)[O-].[Na+].[Na+] [Dithionite, Sodium dithionite]	improved fermentability	about 10 g/L	35 to 40 g/L	highest ethanol production	highest ethanol production	highest ethanol production	35 to 40 g/L	about 30 g/L	higher ethanol production compared to the untreated hydrolysate	0.28 g EtOH/Σglucose & mannose prior to detoxification	3.9	0.34 g EtOH/g consumed glucose & mannose	comparable to those of the reference fermentation	0.34 g EtOH/Σglucose & mannose prior to detoxification	2.5	0.37 g EtOH/g consumed glucose & mannose	Ethanol production, dithionite compared with sulphite ([1]; 10 and 7.5 mM (FIG. 9)): better than any of the sulphite concentrations; Ethanol levels and ethanol formation ([2]; 7.5 mM, compared with 10 mM dithionite (FIG. 5)): reached the same high levels of ethanol, but ethanol formation was slightly slower; Time after which ethanol formation leveled off ([2]; 10 mM (FIG. 5)): about 45 h; Improvement of ethanol production, dithionite compared with sulphite ([2]; 10 mM (FIG. 8)): better improvement than the addition of sulphite; Ethanol concentration compared with other additions ([3]; 10 mM (FIG. 4)): higher ethanol concentration compared to addition of 5 mM dithionite or 10 mM sulphite; Glucose consumption rates and amounts of ethanol produced ([3]; spruce hydrolysate, 5 mM (FIGS. 1 and 2)): substantial improvement compared to untreated hydrolysate
